# Legend:
# [1] = Selectivity interaction (Ex-vivo activation of CD20+ B cells in cynomolgus (anti-IgM/IL-4 stimulated pAKT)) EUB0000877a PIK3CD
# [2] = target: T1, Serine/threonine-protein kinase D2 (Homo sapiens) (UniProt Q9BZL6); assay: Selectivity interaction (ActivX KiNativ screen (kinase selectivity in THP-1 cell lysates)) EUB0000639a PRKD2; assay type: subcellular; details: lysate, at 5 µM
# T1 sequence (whole entry): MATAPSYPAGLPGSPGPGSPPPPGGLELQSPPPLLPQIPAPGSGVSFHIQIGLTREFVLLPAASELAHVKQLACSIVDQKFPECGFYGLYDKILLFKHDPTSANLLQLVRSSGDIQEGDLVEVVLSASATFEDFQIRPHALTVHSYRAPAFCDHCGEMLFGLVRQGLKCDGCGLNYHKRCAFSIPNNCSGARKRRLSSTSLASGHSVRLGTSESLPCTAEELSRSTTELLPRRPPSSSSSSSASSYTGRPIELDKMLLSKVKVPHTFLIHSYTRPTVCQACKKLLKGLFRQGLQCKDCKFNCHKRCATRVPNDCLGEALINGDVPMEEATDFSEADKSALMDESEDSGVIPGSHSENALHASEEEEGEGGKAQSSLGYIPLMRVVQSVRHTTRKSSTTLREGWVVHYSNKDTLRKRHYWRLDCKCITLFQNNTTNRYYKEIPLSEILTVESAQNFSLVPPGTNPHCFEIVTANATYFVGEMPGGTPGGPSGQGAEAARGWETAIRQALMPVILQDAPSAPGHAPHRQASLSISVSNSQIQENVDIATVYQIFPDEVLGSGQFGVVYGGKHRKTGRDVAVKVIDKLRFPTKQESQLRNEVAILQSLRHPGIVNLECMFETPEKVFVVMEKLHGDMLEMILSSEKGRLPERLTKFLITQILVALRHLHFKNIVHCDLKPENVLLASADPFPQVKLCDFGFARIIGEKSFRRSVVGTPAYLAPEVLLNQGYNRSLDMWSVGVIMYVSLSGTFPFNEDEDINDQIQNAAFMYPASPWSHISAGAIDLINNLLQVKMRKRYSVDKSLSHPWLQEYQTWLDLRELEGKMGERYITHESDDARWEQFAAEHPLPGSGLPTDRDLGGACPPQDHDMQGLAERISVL
# [3] = target: T2, Mitogen-activated protein kinase kinase kinase kinase 2 (Homo sapiens) (UniProt Q12851); assay: Selectivity interaction (ActivX KiNativ screen (kinase selectivity in THP-1 cell lysates)) EUB0000639a MAP4K2; assay type: subcellular; details: lysate, at 5 µM
# T2 sequence (whole entry): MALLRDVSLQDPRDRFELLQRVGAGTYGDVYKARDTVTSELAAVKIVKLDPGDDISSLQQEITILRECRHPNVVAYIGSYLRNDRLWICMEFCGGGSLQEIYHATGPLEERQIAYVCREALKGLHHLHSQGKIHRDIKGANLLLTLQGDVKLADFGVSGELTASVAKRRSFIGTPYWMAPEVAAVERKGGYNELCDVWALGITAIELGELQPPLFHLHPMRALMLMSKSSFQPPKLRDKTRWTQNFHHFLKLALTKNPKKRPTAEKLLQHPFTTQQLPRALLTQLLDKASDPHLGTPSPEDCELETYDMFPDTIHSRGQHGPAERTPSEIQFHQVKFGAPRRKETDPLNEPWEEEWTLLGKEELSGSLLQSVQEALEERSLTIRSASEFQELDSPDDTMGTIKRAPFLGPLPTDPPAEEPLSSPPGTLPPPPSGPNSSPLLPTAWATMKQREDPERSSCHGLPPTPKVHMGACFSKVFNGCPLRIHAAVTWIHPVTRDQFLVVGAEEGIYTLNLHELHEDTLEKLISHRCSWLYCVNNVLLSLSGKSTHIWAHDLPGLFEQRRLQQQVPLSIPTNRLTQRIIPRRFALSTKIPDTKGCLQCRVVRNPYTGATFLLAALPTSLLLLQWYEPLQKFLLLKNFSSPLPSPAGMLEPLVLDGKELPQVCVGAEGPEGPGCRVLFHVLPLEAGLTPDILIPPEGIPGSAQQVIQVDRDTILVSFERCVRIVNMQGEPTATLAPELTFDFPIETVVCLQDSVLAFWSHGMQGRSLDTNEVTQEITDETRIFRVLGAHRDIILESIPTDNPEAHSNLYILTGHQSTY
# [4] = target: Serine/threonine-protein kinase 38-like (Homo sapiens) (UniProt Q9Y2H1); assay: Selectivity interaction (ActivX KiNativ screen (kinase selectivity in THP-1 cell lysates)) EUB0000639a STK38L; assay type: subcellular; details: lysate, at 0.2 µM
# [5] = Selectivity interaction (KinomeScan (DiscoverX)) EUB0000092b CDK2H; details: at 10 µM
# [6] = target: Transient receptor potential cation channel subfamily M member 6 (Homo sapiens) (UniProt Q9BX84); assay: Selectivity interaction (KinomeScan (DiscoverX)) EUB0000618a TRPM6; details: at 10 µM
# Transient receptor potential cation channel subfamily M member 6 (Homo sapiens), sequence (Q9BX84 whole entry): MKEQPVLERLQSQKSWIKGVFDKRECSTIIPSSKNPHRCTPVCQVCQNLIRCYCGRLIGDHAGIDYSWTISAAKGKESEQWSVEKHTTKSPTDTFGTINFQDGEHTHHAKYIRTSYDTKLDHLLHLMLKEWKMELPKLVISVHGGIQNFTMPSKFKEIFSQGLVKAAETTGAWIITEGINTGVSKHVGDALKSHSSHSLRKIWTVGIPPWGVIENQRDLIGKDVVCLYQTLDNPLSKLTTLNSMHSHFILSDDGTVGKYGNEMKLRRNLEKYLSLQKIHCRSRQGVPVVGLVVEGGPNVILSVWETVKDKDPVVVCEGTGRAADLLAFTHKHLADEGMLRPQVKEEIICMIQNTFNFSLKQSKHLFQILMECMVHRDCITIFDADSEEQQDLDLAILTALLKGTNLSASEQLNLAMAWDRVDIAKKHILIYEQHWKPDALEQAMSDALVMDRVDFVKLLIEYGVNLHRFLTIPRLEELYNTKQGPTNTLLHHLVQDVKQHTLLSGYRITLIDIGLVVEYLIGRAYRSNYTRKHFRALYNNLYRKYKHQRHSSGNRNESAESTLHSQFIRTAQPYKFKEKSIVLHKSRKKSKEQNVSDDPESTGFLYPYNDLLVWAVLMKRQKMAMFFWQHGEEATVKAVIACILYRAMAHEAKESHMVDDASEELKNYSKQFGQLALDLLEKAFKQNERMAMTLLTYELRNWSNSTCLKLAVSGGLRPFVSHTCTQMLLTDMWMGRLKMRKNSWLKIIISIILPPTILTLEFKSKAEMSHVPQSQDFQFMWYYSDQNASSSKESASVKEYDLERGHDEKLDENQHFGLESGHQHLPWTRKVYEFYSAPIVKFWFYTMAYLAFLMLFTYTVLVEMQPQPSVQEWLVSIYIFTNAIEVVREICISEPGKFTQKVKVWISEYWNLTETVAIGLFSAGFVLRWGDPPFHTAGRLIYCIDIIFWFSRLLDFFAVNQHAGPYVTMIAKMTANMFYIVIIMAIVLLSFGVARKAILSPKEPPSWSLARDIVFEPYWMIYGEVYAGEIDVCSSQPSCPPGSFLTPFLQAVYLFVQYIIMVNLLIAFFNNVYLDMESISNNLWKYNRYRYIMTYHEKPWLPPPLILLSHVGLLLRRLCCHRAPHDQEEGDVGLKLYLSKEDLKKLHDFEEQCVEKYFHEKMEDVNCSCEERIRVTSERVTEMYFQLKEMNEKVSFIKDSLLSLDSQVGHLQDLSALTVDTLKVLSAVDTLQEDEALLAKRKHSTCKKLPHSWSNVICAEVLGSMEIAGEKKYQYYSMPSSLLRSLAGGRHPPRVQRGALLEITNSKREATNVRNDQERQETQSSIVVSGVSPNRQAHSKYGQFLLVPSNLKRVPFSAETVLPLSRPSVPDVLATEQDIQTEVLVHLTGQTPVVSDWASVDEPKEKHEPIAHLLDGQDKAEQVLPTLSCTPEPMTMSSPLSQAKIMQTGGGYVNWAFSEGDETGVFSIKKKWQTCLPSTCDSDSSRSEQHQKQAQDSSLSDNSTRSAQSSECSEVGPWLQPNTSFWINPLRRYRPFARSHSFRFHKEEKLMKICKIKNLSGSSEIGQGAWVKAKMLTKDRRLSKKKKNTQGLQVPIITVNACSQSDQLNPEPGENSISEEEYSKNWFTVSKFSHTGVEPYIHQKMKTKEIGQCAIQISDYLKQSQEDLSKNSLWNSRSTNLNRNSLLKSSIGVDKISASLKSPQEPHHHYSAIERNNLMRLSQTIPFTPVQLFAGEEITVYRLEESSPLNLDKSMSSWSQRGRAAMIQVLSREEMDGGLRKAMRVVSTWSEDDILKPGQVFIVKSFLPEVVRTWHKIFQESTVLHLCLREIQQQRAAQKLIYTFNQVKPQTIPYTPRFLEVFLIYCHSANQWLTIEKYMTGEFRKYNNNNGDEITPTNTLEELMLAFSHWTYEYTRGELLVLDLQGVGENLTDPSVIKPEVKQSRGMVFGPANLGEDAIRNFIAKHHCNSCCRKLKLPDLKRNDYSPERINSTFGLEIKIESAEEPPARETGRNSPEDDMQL
# [7] = target: Ribosomal protein S6 kinase alpha-5 (Homo sapiens) (UniProt O75582); assay: Selectivity interaction (KinomeScan (DiscoverX)) EUB0000618a RPS6KA5; details: at 10 µM
# Ribosomal protein S6 kinase alpha-5 (Homo sapiens), sequence (O75582 whole entry, looked up): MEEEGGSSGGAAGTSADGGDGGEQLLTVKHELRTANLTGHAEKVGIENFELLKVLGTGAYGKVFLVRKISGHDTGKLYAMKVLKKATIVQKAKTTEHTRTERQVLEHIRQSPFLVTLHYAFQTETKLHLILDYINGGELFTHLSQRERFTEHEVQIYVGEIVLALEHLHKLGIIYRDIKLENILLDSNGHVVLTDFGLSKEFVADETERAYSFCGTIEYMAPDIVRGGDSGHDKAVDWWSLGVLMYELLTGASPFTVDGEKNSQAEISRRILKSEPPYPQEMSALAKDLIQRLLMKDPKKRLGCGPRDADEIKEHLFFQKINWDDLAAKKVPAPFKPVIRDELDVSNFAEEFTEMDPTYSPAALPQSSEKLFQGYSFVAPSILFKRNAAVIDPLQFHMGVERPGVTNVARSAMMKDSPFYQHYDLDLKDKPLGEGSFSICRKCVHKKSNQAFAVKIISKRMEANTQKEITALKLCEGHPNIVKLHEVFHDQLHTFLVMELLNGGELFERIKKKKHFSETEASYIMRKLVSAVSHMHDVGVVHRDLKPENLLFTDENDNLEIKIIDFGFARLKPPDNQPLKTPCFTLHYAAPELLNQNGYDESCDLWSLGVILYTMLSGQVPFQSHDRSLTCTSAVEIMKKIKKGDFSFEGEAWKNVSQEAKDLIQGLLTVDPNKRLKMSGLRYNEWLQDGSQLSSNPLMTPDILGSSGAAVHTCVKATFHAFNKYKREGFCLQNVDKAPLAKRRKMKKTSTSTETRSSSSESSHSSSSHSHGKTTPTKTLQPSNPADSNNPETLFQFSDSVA
# [8] = target: MAP/microtubule affinity-regulating kinase 3 (Homo sapiens) (UniProt P27448); assay: Selectivity interaction (Kinase panel (Carna Biosciences)) EUB0001542aTs MARK3; details: at 1 µM
# [9] = target: Mitogen-activated protein kinase 3 (Homo sapiens, UniProt P27361); assay: Selectivity interaction (Kinase panel (Z-LYTE Assay)) EUB0001632a MAPK3; details: at 10 µM
# Mitogen-activated protein kinase 3, sequence (P27361 whole entry): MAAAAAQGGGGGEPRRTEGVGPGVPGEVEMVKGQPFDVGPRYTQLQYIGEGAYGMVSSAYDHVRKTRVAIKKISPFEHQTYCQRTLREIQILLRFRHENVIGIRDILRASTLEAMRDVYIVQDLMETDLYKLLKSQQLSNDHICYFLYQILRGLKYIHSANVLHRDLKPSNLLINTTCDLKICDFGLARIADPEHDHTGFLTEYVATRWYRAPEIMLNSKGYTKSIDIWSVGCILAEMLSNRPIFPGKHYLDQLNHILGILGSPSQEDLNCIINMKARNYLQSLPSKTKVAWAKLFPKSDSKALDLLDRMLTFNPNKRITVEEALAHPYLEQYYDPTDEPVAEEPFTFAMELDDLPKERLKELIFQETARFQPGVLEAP
# [10] = target: Death-associated protein kinase 3 (Homo sapiens) (UniProt O43293); assay: Selectivity interaction (Kinase panel (Z-LYTE Assay)) EUB0001632a DAPK3; details: at 10 µM
# [11] = target: Androgen receptor (Homo sapiens) (UniProt P10275); assay: Selectivity interaction (Panel of non-epigenetic targets (kinases, GPCRs, ion channels, and transporters, Eurofins) ) EUB0000271b AR; details: at 1 µM
# Androgen receptor (Homo sapiens), sequence (P10275 whole entry): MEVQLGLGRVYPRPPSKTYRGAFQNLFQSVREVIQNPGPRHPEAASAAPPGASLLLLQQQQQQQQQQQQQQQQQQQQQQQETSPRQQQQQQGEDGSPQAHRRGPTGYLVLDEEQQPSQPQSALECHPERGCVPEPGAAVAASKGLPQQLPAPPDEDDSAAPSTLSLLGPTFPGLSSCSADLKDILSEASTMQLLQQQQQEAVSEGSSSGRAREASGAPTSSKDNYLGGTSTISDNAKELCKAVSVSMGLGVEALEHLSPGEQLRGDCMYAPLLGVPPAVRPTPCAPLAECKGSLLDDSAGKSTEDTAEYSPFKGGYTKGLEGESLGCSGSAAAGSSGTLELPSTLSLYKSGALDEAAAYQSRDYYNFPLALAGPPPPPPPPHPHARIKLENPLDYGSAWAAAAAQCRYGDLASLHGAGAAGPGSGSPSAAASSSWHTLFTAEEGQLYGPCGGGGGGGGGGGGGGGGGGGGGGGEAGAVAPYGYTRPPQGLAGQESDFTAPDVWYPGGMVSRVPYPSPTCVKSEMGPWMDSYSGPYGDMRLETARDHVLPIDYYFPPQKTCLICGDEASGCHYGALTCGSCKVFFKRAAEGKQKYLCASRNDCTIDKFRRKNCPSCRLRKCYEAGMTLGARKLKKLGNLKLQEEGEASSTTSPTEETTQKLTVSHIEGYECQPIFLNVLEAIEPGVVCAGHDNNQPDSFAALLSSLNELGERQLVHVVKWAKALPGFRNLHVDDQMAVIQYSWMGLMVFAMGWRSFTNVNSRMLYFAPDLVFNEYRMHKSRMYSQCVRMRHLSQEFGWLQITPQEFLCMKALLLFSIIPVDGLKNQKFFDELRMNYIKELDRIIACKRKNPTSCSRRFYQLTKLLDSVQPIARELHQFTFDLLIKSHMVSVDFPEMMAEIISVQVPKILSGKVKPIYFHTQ
# [12] = target: Serine/threonine-protein kinase pim-1 (Homo sapiens, UniProt P11309); assay: Selectivity interaction (ProQinase) EUB0000171b PIM1
# Serine/threonine-protein kinase pim-1, sequence (P11309 whole entry, looked up): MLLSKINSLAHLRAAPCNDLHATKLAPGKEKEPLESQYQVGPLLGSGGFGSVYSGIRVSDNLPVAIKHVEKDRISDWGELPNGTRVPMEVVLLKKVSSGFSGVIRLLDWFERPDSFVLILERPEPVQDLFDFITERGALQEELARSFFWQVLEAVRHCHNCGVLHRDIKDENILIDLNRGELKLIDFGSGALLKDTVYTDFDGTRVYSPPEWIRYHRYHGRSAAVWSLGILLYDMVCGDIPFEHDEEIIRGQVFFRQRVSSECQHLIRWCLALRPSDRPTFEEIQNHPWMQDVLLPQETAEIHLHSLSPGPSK
# [13] = target: Phosphatidylinositol 4-kinase type 2-beta (Homo sapiens) (UniProt Q8TCG2); assay: Selectivity interaction (ProQinase) EUB0000171b PI4K2B
# Phosphatidylinositol 4-kinase type 2-beta (Homo sapiens), sequence (Q8TCG2 whole entry): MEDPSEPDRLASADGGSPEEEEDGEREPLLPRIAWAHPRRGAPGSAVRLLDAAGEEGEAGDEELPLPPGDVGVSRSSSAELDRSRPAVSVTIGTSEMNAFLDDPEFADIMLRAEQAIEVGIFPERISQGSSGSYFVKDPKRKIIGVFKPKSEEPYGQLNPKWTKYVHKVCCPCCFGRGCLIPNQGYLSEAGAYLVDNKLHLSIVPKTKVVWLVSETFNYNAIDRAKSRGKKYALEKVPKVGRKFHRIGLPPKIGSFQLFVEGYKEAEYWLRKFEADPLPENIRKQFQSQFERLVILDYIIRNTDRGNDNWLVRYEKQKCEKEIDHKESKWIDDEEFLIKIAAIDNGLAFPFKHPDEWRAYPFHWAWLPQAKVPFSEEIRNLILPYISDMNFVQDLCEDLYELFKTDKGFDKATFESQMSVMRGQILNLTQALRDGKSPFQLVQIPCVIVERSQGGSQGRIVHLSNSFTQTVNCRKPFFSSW
compound,measurement,setting,value
CCC(=O)N1CC[C@H](Nc2ncnc3c2CN(c2cnc(OC)c(C(F)(F)F)c2)CC3)C1 [LENIOLISIB],EC50,[1],0.14 µM
CC[C@@H]1[C@H](F)C(=O)N[C@@H]1COc1nccc2cc(C(N)=O)c(OC)cc12 [ZIMLOVISERTIB],% of inhibition,[2],8.9%
same,% of inhibition,[3],-1.3%
same,% of inhibition,[4],18.4%
CCC(=O)N1CCN(c2ccc(-n3c(=O)ccc4cnc5ccc(-c6cnc7ccccc7c6)cc5c43)cc2C(F)(F)F)CC1,% of control,[5],97%
O[C@H]1CC[C@H](Nc2ncc3nc(Nc4c(F)cc(F)cc4F)n([C@H]4CCOC4)c3n2)CC1,% of control,[6],100%
same,% of control,[7],68%
Cn1cc(Nc2nccc(N3CC4CCC(C3)N4C(=O)[C@@H]3CC3(F)F)n2)cn1,% of inhibition,[8],50%
Cn1cc(-n2cnc3c(NCc4nc5cc(Cl)c(Cl)cc5[nH]4)nc(N4CCOCC4)nc32)cn1,% of control,[9],-1.61%
same,% of control,[10],-3.73%
Cc1cc(C)cc([C@@H]2c3cc(C)ccc3NC(=O)CN2C(=O)c2ccc(Br)s2)c1,% of inhibition,[11],-7%
C=CC(=O)Nc1cccc(C(=O)Nc2ccc(Nc3cc(-c4[nH]c(SC)nc4C)ccn3)cc2)c1,% of control,[12]; at 1 µM,87%
same,% of control,[12]; at 5 µM,67%
same,% of control,[13]; at 1 µM,128%
same,% of control,[13]; at 5 µM,120%
